The source of these data is patent US5602161A, “Tetrazolylphenyl pivalate derivatives and medicinal composition containing the same as effective component” (Wakamoto Pharmaceutical Co., Ltd., priority 1994, dated 1997).

Where a name gives a salt, the structure may show the parent alone.

For the assay, the target named is T1, human sputum elastase (Homo sapiens, UniProt P08246).
T1 sequence (P08246 30-247 limits assumed): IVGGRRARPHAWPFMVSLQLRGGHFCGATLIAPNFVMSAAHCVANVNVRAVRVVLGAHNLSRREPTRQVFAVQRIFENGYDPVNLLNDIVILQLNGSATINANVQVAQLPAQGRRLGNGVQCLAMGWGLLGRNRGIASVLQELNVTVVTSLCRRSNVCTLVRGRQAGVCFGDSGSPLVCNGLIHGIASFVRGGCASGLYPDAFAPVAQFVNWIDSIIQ
The experiment in a line: Inhibitory effect on elastase (human sputum), spectrophotometric assay with MeOSuc-Ala-Ala-Pro-Val-pNA. In kind it is biochemical. Conditions: S: human sputum elastase; pH 8.0, 37° C.; read-out: IC50.

Procedure: Namely, it is a spectrophotometric assay using the synthesized substrate, methoxysuccinyl-alanyl-alanyl- prolyl-valyl-p-nitroanilide(MeOSuc-Ala-Ala-Pro-Val-pNA, Cambridge research biochemical Co.) which has high specificity on neutrophil elastase.
20 μl of a test compound of various concentrations and 20 μl of enzyme solution (13 unit/ml) were added to 400 μl of 0.1M sodium phosphate buffer (pH 8.0). The mixture was incubated at 37° C. for 5 min, and then 20 μl of the substrate was added to the mixture in a final volume of 460 μl. The reaction was conducted by incubating thus obtained mixture at 37° C. for 20 min. The reaction was stopped by the addition of 300 μl of 20% acetic acid into the reaction mixture, and then p-nitroanilide released was measured by the spectrophotometrically at 405 nm.
Inhibition percents of the test compounds were calculated by the following equation:
Inhibition %=[1-(OD 405 nm value of the testing sample-background)/(OD 405 nm value of the control-background)]×100

As to `CC(C)(C)C(=O)Oc1ccc(-c2nnn(Cc3ccc(C(=O)N[C@@H](Cc4ccccc4)C(=O)O)cc3)n2)cc1`, the IC50 (in general, the midpoint of a concentration-inhibition curve) is 58 nM.

On to `CSCCC(NC(=O)c1ccc(Cn2nnc(-c3ccc(OC(=O)C(C)(C)C)cc3)n2)cc1)C(=O)O` (racemic) [Example 62, N-[4-[5-(4-Pivaloyloxyphenyl)tetrazol-2-ylmethyl]benzoyl]-DL-methionine], for which the IC50 stood at 79 nM.

As to `CC(C)(C)C(=O)Oc1ccc(-c2nnn[nH]2)cc1` [Example 3, 4-(1H-Tetrazol-5-yl)phenyl pivalate], the IC50 was 2000 nM.

Take `CN(C)c1cc(-c2nnn(Cc3ccc(C(=O)O)cc3)n2)ccc1OC(=O)C(C)(C)C` [Example 8, 4-[5-(3-Dimethylamino-4-pivaloyloxyphenyl)tetrazol-2-ylmethyl]benzoic acid]: the IC50 was 230 nM.

In the case of `CC(C)(C)OC(=O)Cn1nnc(-c2ccc(OC(=O)C(C)(C)C)cc2)n1` [Example 10, 4-[2-(t-Butoxycarbonylmethyl)tetrazol-5-yl]phenyl pivalate], the IC50 was found to be 800 nM.

For `CC(C)(C)C(=O)Oc1ccc(-c2nnn(Cc3ccc([N+](=O)[O-])cc3)n2)cc1` [Example 25, 4-[2-(4-Nitrobenzyl)tetrazol-5-yl]phenyl pivalate], the IC50 amounted to 280 nM.

Turning to `CC(C)(C)C(=O)Oc1ccc(-c2nnn(Cc3cccc([N+](=O)[O-])c3)n2)cc1` [Example 26, 4-[2-(3-Nitrobenzyl)tetrazol-5-yl]phenyl pivalate], the IC50 amounted to 270 nM.

For the compound `CC(C)(C)C(=O)Oc1ccc(-c2nnn(Cc3ccccc3[N+](=O)[O-])n2)cc1` [Example 27, 4-[2-(2-Nitrobenzyl)tetrazol-5-yl]phenyl pivalate], the IC50 was found to be 90 nM.

On to `CC(C)(C)C(=O)Oc1ccc(-c2nnn(C(c3ccccc3)c3ccccc3)n2)cc1` [Example 28, 4-[2-(Diphenylmethyl)tetrazol-5-yl]phenyl pivalate], for which the IC50 was determined as 220 nM.

Take `CC(=O)c1ccc(Cn2nnc(-c3ccc(OC(=O)C(C)(C)C)cc3)n2)cc1` [Example 29, 4-[2-(4-Acetylbenzyl)tetrazol-5-yl]phenyl pivalate]: the IC50 turned out to be 100 nM.

As for `CC(C)(C)OC(=O)COc1ccccc1Cn1nnc(-c2ccc(OC(=O)C(C)(C)C)cc2)n1` [Example 30, t-Butyl 2-[5-(4-pivaloyloxyphenyl)tetrazol-2-ylmethyl]phenoxyacetate], the IC50 was found to be 380 nM.

Consider `CC(C)(C)OC(=O)COc1cccc(Cn2nnc(-c3ccc(OC(=O)C(C)(C)C)cc3)n2)c1` [Example 31, t-Butyl 3-[5-(4-pivaloyloxyphenyl)tetrazol-2-ylmethyl]phenoxyacetate], for which the IC50 was 100 nM.

With `CC(C)(C)OC(=O)COc1ccc(Cn2nnc(-c3ccc(OC(=O)C(C)(C)C)cc3)n2)cc1` [Example 32, t-Butyl 4-[5-(4-pivaloyloxyphenyl)tetrazol-2-ylmethyl]phenoxyacetate], the IC50 is 380 nM.

Consider `CC(C)(C)C(=O)Oc1ccc(-c2nnn(C(C)(C)C)n2)cc1` [Example 36, 4-[2-(1,1-Dimethylethyl)tetrazol-5-yl]phenyl pivalate], for which the IC50 is 800 nM.

`CN(C)CCn1nnc(-c2ccc(OC(=O)C(C)(C)C)cc2)n1` [Example 38, 4-[2-(2-Dimethylaminoethyl)tetrazol-5-yl]phenyl pivalate Hydrochloride]: the IC50 was 800 nM.

With `CN(C(=O)OC(C)(C)C)c1ccc(Cn2nnc(-c3ccc(OC(=O)C(C)(C)C)cc3)n2)cc1` [Example 39, 4-[2-[4-(N-t-Butoxycarbonyl-N-methylamino)benzyl]tetrazol-5-yl]phenyl pivalate], the IC50 stood at 80 nM.

For the compound `CN(C(=O)OC(C)(C)C)c1ccc(Cn2nnnc2-c2ccc(OC(=O)C(C)(C)C)cc2)cc1` [Example 40, 4-[1-[4-(N-t-Butoxycarbonyl-N-methylamino)benzyl]tetrazol-5-yl]phenyl pivalate], the IC50 is 250 nM.

For `COc1ccc(COCCCCCn2nnc(-c3ccc(OC(=O)C(C)(C)C)cc3)n2)cc1` [Example 43, 4-[2-[5-(4-Methoxybenzyloxy)pentyl]tetrazol-5-yl]phenyl pivalate], the IC50 stood at 130 nM.

As for `CC(C)(C)OC(=O)NCCn1nnc(-c2ccc(OC(=O)C(C)(C)C)cc2)n1` [Example 45, 4-[2-[2-(t-Butoxycarbonylamino)ethyl]tetrazol-5-yl]phenyl pivalate], the IC50 turned out to be 130 nM.

As for `CC(C)(C)C(=O)Oc1ccc(-c2nnn(Cc3ccc(N4CCCC4)cc3)n2)cc1` [Example 50, 4-[2-(4-Pyrrolidinobenzyl)tetrazol-5-yl]phenyl pivalate], the IC50 stood at 1700 nM.

On to `CC(C)(C)C(=O)Oc1ccc(-c2nnn(Cc3ccccc3C(=O)O)n2)cc1` [Example 52, 2-[5-(4-Pivaloyloxyphenyl)tetrazol-2-ylmethyl]benzoic acid], for which the half-inhibitory concentration (IC50) was found to be 350 nM.

As for `CC(C)(C)C(=O)Oc1ccc(-c2nnn(Cc3ccc(CC(=O)O)cc3)n2)cc1` [Example 53, 4-[5-(4-Pivaloyloxyphenyl)tetrazol-2-ylmethyl]phenylacetic acid], the IC50 is 110 nM.

Consider `Cc1cc(-c2nnn(Cc3ccc(C(=O)O)cc3)n2)ccc1OC(=O)C(C)(C)C` [Example 55, 4-[5-(3-Methyl-4-pivaloyloxyphenyl)tetrazol-2-ylmethyl]benzoic acid], for which the IC50 is 1000 nM.

With `COc1cc(-c2nnn(Cc3ccc(C(=O)O)cc3)n2)ccc1OC(=O)C(C)(C)C` [Example 56, 4-[5-(3-Methoxy-4-pivaloyloxyphenyl)tetrazol-2-ylmethyl]benzoic acid], the IC50 amounted to 420 nM.

As to `C[C@H](NC(=O)c1ccc(Cn2nnc(-c3ccc(OC(=O)C(C)(C)C)cc3)n2)cc1)C(=O)O` [Example 57, N-[4-[5-(4-Pivaloyloxyphenyl)tetrazol-2-ylmethyl]benzoyl]-L-alanine], the IC50 was determined as 420 nM.

For `CC(C)(C)C(=O)Oc1ccc(-c2nnn(Cc3ccc(C(=O)NCC(=O)O)cc3)n2)cc1` [Example 58, N-[4-[5-(4-pivaloyloxyphenyl)tetrazol-2-ylmethyl]benzoyl]glycine], the IC50 was determined as 29 nM.

With `CC(C)(C)C(=O)Oc1ccc(-c2nnn(Cc3ccc(C(=O)N[C@@H](CCC(=O)O)C(=O)O)cc3)n2)cc1` [Example 61, N-[4-[5-(4-Pivaloyloxyphenyl)tetrazol-2-ylmethyl]benzoyl]-L-glutamic acid], the IC50 worked out at 30 nM.

Consider `CC(C)(C)C(=O)Oc1ccc(-c2nnn(Cc3ccc(C(=O)NCCCCCC(=O)O)cc3)n2)cc1` [Example 68, 6-[N-[4-[5-(4-Pivaloyloxyphenyl)tetrazol-2-ylmethyl]benzoyl]amino]caproic acid], for which the IC50 was 200 nM.

For the compound `CC(C)(C)C(=O)Oc1ccc(-c2nnn(C(C(=O)NCC(=O)O)c3ccccc3)n2)cc1` (stereo not drawn) [Example 70, N-[2-Phenyl-2-[5-(4-pivaloyloxyphenyl)tetrazol-2-yl]acetyl]glycine], the IC50 worked out at 1000 nM.

`CC(C)(C)C(=O)Oc1ccc(-c2nnn(Cc3ccc(C(=O)NCCN)cc3)n2)cc1` [Example 71, N-(2-Aminoethyl)-4-[5-(4-pivaloyloxyphenyl)tetrazol-2-ylmethyl]benzamide Hydrochloride]: the IC50 was found to be 260 nM.

In the case of `CC(C)(C)C(=O)Oc1ccc(-c2nnn(CCO)n2)cc1` [Example 72, 4-[2-(2-Hydroxyethyl)tetrazol-5-yl]phenyl pivalate], the IC50 was 500 nM.

As to `CC(C)(C)C(=O)Oc1ccc(-c2nnn(Cc3ccc(N)cc3)n2)cc1` [Example 76, 4-[2-(4-Aminobenzyl)tetrazol-5-yl]phenyl pivalate], the IC50 turned out to be 180 nM.

As for `CC(C)(C)C(=O)Oc1ccc(-c2nnn(Cc3cccc(N)c3)n2)cc1` [Example 77, 4-[2-(3-Aminobenzyl)tetrazol-5-yl]phenyl pivalate], the IC50 came out at 150 nM.

`CC(C)(C)C(=O)Oc1ccc(-c2nnn(Cc3ccccc3NS(C)(=O)=O)n2)cc1` [Example 79, 4-[2-[2-(Methylsulfonylamino)benzyl]tetrazol-5-yl]phenyl pivalate]: the IC50 was 140 nM.

On to `CC(C)(C)C(=O)Oc1ccc(-c2nnn(Cc3ccccc3OCC(=O)O)n2)cc1` [Example 81, 2-[5-(4-Pivaloyloxyphenyl)tetrazol-2-ylmethyl]phenoxyacetic acid], for which the IC50 came to 59 nM.

On to `CC(C)(C)C(=O)Oc1ccc(-c2nnn(Cc3cccc(OCC(=O)O)c3)n2)cc1` [Example 82, 3-[5-(4-Pivaloyloxyphenyl)tetrazol-2-ylmethyl]phenoxyacetic acid], for which the IC50 was determined as 92 nM.

Take `CC(C)(C)C(=O)Oc1ccc(-c2nnn(Cc3ccc(OCC(=O)O)cc3)n2)cc1` [Example 83, 4-[5-(4-Pivaloyloxyphenyl)tetrazol-2-ylmethyl]phenoxyacetic acid]: the IC50 was 84 nM.

For the compound `CC(C)(C)C(=O)Oc1ccc(-c2nnn(Cc3ccccc3OCCN)n2)cc1` [Example 84, 4-[2-[2-(2-Aminoethoxy)benzyl]tetrazol-5-yl]phenyl pivalate Hydrochloride], the IC50 was determined as 720 nM.

As to `CC(C)(C)C(=O)Oc1ccc(-c2nnn(Cc3cccc(OCCN)c3)n2)cc1` [Example 85, 4-[2-[3-(2-Aminoethoxy)benzyl]tetrazol-5-yl]phenyl pivalate Hydrochloride], the IC50 was found to be 77 nM.

Regarding `CC(C)(C)C(=O)Oc1ccc(-c2nnn(Cc3ccc(OCCN)cc3)n2)cc1` [Example 86, 4-[2-[4-(2-Aminoethoxy)benzyl]tetrazol-5-yl]phenyl pivalate Hydrochloride], the IC50 is 80 nM.

Consider `CC(C)(C)C(=O)Oc1ccc(-c2nnn(Cc3ccc(NC(=O)CN)cc3)n2)cc1` [Example 87, 4-[2-[4-(Glycylamino)benzyl]tetrazol-5-yl]phenyl pivalate Hydrochloride], for which the IC50 stood at 58 nM.

For the compound `COc1cc(-c2nnn(Cc3cccc(OCCN)c3)n2)ccc1OC(=O)C(C)(C)C` [Example 88, 4-[2-[3-(2-Aminoethoxy)benzyl]tetrazol-5-yl]-2-methoxyphenyl pivalate Hydrochloride], the IC50 amounted to 650 nM.
